Experimental data from patent US20240301319A1, “PERFUMING COMPOSITIONS” (FIRMNICH SA, priority 2017, published 2024).

Assays:
[1] = Volatility of perfuming compounds (Tables 4 to 10), with top/middle/bottom note type; assay type: physicochemical
Summary of the method: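 Volatility is expressed in μg/l in air. Top notes are 70,000 to 100 μg/l, middle notes 99 to 50 μg/l, and bottom notes 49 to 0.1 μg/l. Compounds are grouped by olfactive family: watery, green, fruity, citrus, sweet, gourmand and woody.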

[2] = Odor threshold and odor value of perfuming compounds (Tables 4 to 10)
[3] = Table 6, perfuming compounds having a fruity note
[4] = Table 6, perfuming compounds having a fruity note, note type by volatility
[5] = Table 4, watery note, top, middle or bottom note
[6] = Table 4, watery note, equals volatility divided by odor threshold
[7] = note type (Top/Middle/Bottom) by volatility, perfuming compounds having a green note
[8] = perfuming compounds having a green note
[9] = Table 8, perfuming compounds having a sweet note
[10] = Table 8, perfuming compounds having a sweet note, note type by volatility
[11] = Table 9, perfuming compounds having a gourmand note, note type by volatility
[12] = Table 7, citrus note, top, middle or bottom note
[13] = Table 7, citrus note, equals volatility divided by odor threshold

## CCCCCCOC(=O)CCCCC [HEXYL HEXANOATE]
[1]; [3]
  Volatility: 105.52 μg/l air
[1]; [4]
  Type: TOP (perfuming compounds having a volatility ranging from 70,000 to 100 μg/l in air are referred to as “top notes”)
[2]; [3]
  Odor Threshold: 9.98E−02 μg/l air
  Odor Value: 1.06E+03

## COC(=O)c1c(C)cc(O)c(C)c1O [METHYL 2,4-DIHYDROXY-3,6-DIMETHYLBENZOATE]
[1]; Table 4, watery note
  Volatility (μg/l air): 1.52 μg/l air
[1]; [5]
  Type: bottom (perfuming compounds having a volatility ranging from 49 to 0.1 μg/l in air are referred to as “bottom notes”)
[2]; Table 4, watery note
  Odor Threshold (μg/l air): 4.89E−06 μg/l air
[2]; [6]
  Odor Value: 3.11E+05

## CCCCCCC#CC(=O)OC [METHYL 2-NONYNOATE]
[1]; Table 4, watery note
  Volatility (μg/l air): 91.76 μg/l air
[1]; [5]
  Type: middle (perfuming compounds having a volatility ranging from 99 to 50 μg/l in air are referred to as “middle notes”)
[1]; [7]
  Type: Middle
[1]; [8]
  Volatility (μg/l air): 91.76 μg/l air
[2]; Table 4, watery note
  Odor Threshold (μg/l air): 1.60E−03 μg/l air
[2]; [6]
  Odor Value: 5.74E+04
[2]; [8]
  Odor Threshold (μg/l air): 1.60E−03 μg/l air

## CCCCCC#CC(=O)OC [METHYL 2-OCTYNOATE]
[1]; [7]
  Type: Top
[1]; [8]
  Volatility (μg/l air): 472.01 μg/l air
[2]; [8]
  Odor Threshold (μg/l air): 8.31E−04 μg/l air

## CCCCCC#CC(=O)OC [METHYL 2-OCTYNOATE″]
[1]; Table 4, watery note
  Volatility (μg/l air): 472.01 μg/l air
[1]; [5]
  Type: TOP (perfuming compounds having a volatility ranging from 70,000 to 100 μg/l in air are referred to as “top notes”)
[2]; Table 4, watery note
  Odor Threshold (μg/l air): 8.31E−04 μg/l air
[2]; [6]
  Odor Value: 5.68E+05

## COC(=O)/C=C/c1ccccc1 [METHYL (E)-3-PHENYL-2-PROPENOATE]
[1]; [3]
  Volatility: 61.65 μg/l air
[1]; [4]
  Type: Middle
[2]; [3]
  Odor Threshold: 3.13E−03 μg/l air
  Odor Value: 1.97E+04

## CCCCCC(=O)OC [METHYL HEXANOATE]
[1]; [3]
  Volatility: 23345.90 μg/l air
[1]; [4]
  Type: TOP (perfuming compounds having a volatility ranging from 70,000 to 100 μg/l in air are referred to as “top notes”)
[1]; [7]
  Type: Top
[1]; [8]
  Volatility (μg/l air): 23345.90 μg/l air
[2]; [8]
  Odor Threshold (μg/l air): 8.43E−02 μg/l air

## COC(=O)Cc1ccccc1 [METHYL PHENYLACETATE]
[1]; [3]
  Volatility: 555.30 μg/l air
[1]; [4]
  Type: TOP (perfuming compounds having a volatility ranging from 70,000 to 100 μg/l in air are referred to as “top notes”)
[1]; [9]
  Volatility: 555.30 μg/l air
[1]; [10]
  Type: Top
[1]; Table 9, gourmand note
  Volatility: 555.30 μg/l air
[1]; [11]
  Type: Top
[2]; [9]
  Odor Threshold: 3.21E−04 μg/l air
  Odor Value: 1.73E+06
[2]; Table 9, gourmand note
  Odor Threshold: 3.21E−04 μg/l air

## CCCCCCCC=O [OCTANAL]
[1]; [7]
  Type: Top
[1]; [8]
  Volatility (μg/l air): 4147.61 μg/l air
[2]; [8]
  Odor Threshold (μg/l air): 2.77E−04 μg/l air

## COc1nccnc1CC(C)C [PYRAZOBUTYLE]
[1]; [7]
  Type: Top
[1]; [8]
  Volatility (μg/l air): 1617.21 μg/l air
[2]; [8]
  Odor Threshold (μg/l air): 7.20E−07 μg/l air

## O=Cc1ccc2c(c1)OCO2 [benzo[d][1,3]dioxole-5-carbaldehyde]
[1]; Table 9, gourmand note
  Volatility: 61.82 μg/l air
[1]; [11]
  Type: Middle
[2]; Table 9, gourmand note
  Odor Threshold: 1.01E−04 μg/l air

## CCCCC/C=C\C=C\C(=O)OCC [ethyl (2E,4Z)-2,4-decadienoate]
[1]; [3]
  Volatility: 36.76 μg/l air
[1]; [4]
  Type: Bottom
[1]; [7]
  Type: Bottom
[1]; [8]
  Volatility (μg/l air): 36.76 μg/l air
[2]; [3]
  Odor Threshold: 3.07E−04 μg/l air
  Odor Value: 1.20E+05
[2]; [8]
  Odor Threshold (μg/l air): 3.07E−04 μg/l air

## CCCCCCCC(=O)OCC [ethyl octanoate]
[1]; [7]
  Type: Top
[1]; [8]
  Volatility (μg/l air): 800.05 μg/l air
[2]; [8]
  Odor Threshold (μg/l air): 5.30E−03 μg/l air

## CCCCCCCOC(C)=O [heptyl acetate]
[1]; [3]
  Volatility: 2814.34 μg/l air
[1]; [4]
  Type: TOP (perfuming compounds having a volatility ranging from 70,000 to 100 μg/l in air are referred to as “top notes”)
[1]; Table 7, citrus note
  Volatility (μg/l air): 2814.34 μg/l air
[1]; [12]
  Type: Top
[2]; Table 7, citrus note
  Odor Threshold (μg/l air): 1.32E−01 μg/l air
[2]; [13]
  Odor Value: 2.14E+04

## CCCCCC=O [hexanal]
[1]; Table 7, citrus note
  Volatility (μg/l air): 68294.85 μg/l air
[1]; [12]
  Type: Top
[1]; [7]
  Type: Top
[1]; [8]
  Volatility (μg/l air): 68294.85 μg/l air
[2]; Table 7, citrus note
  Odor Threshold (μg/l air): 1.76E−03 μg/l air
[2]; [13]
  Odor Value: 3.88E+07
[2]; [8]
  Odor Threshold (μg/l air): 1.76E−03 μg/l air

## CCCCCCOC(=O)C(C)C [hexyl 2-methylpropanoate]
[1]; [3]
  Volatility: 1661.18 μg/l air
[1]; [4]
  Type: TOP (perfuming compounds having a volatility ranging from 70,000 to 100 μg/l in air are referred to as “top notes”)
[1]; [7]
  Type: Top
[1]; [8]
  Volatility (μg/l air): 1661.18 μg/l air
[2]; [8]
  Odor Threshold (μg/l air): 7.15E−01 μg/l air

## C/C=C(\C)C(=O)OCCCCCC [hexyl (2E)-2-methyl-2-butenoate]
[1]; [3]
  Volatility: 256.81 μg/l air
[1]; [4]
  Type: TOP (perfuming compounds having a volatility ranging from 70,000 to 100 μg/l in air are referred to as “top notes”)
[1]; [9]
  Volatility: 256.81 μg/l air
[1]; [10]
  Type: Top
[1]; [7]
  Type: Top
[1]; [8]
  Volatility (μg/l air): 256.81 μg/l air
[2]; [9]
  Odor Threshold: 1.16E−02 μg/l air
  Odor Value: 2.22E+04
[2]; [8]
  Odor Threshold (μg/l air): 1.16E−02 μg/l air

## CCCCCC/C=C/C(=O)OC [methyl (2E)-2-nonenoate]
[1]; [3]
  Volatility: 264.84 μg/l air
[1]; [4]
  Type: TOP (perfuming compounds having a volatility ranging from 70,000 to 100 μg/l in air are referred to as “top notes”)
[1]; [7]
  Type: Top
[1]; [8]
  Volatility (μg/l air): 264.84 μg/l air
[2]; [8]
  Odor Threshold (μg/l air): 5.84E−02 μg/l air

## CCCCCCCCC=O [nonanal]
[1]; Table 7, citrus note
  Volatility (μg/l air): 2777.63 μg/l air
[1]; [12]
  Type: Top
[1]; [7]
  Type: Top
[1]; [8]
  Volatility (μg/l air): 2777.63 μg/l air
[2]; Table 7, citrus note
  Odor Threshold (μg/l air): 8.14E−03 μg/l air
[2]; [13]
  Odor Value: 3.41E+05
[2]; [8]
  Odor Threshold (μg/l air): 8.14E−03 μg/l air

## CCCCCCCCOC(C)=O [octyl acetate]
[1]; [3]
  Volatility: 666.51 μg/l air
[1]; [4]
  Type: TOP (perfuming compounds having a volatility ranging from 70,000 to 100 μg/l in air are referred to as “top notes”)
[1]; Table 7, citrus note
  Volatility (μg/l air): 666.51 μg/l air
[1]; [12]
  Type: Top
[2]; Table 7, citrus note
  Odor Threshold (μg/l air): 1.76E−01 μg/l air
[2]; [13]
  Odor Value: 3.78E+03

## CCCCCCCCCCC=O [undecanal]
[1]; Table 4, watery note
  Volatility (μg/l air): 178.29 μg/l air
[1]; [5]
  Type: TOP (perfuming compounds having a volatility ranging from 70,000 to 100 μg/l in air are referred to as “top notes”)
[2]; Table 4, watery note
  Odor Threshold (μg/l air): 1.65E−03 μg/l air
[2]; [6]
  Odor Value: 1.08E+05

## (1S,4S,9S,10R,13R)-5,5,9,13-tetramethyl-14,16-dioxatetracyclo[11.2.1.0~1,10~.0~4,9~]hexadecane (A) + (1R,4S,9S,10R,13S)-5,5,9,13-tetramethyl-14,16-dioxatetracyclo[11.2.1.0~1,10~.0~4,9~]hexadecane (B)
[1]; Table 4, watery note
  Volatility (μg/l air): 6.77 μg/l air
[1]; [5]
  Type: bottom (perfuming compounds having a volatility ranging from 49 to 0.1 μg/l in air are referred to as “bottom notes”)
[2]; Table 4, watery note
  Odor Threshold (μg/l air): 4.36E−04 μg/l air
[2]; [6]
  Odor Value: 1.55E+04

## (2R)-2-methyl-4-[(1R)-2,2,3-trimethyl-3-cyclopenten-1-yl]-4-pentenal (A) + (2S)-2-methyl-4-[(1R)-2,2,3-trimethyl-3-cyclopenten-1-yl]-4-pentenal (B)
[1]; Table 4, watery note
  Volatility (μg/l air): 63.49 μg/l air
[1]; [5]
  Type: middle (perfuming compounds having a volatility ranging from 99 to 50 μg/l in air are referred to as “middle notes”)
[2]; Table 4, watery note
  Odor Threshold (μg/l air): 2.22E−03 μg/l air
[2]; [6]
  Odor Value: 2.86E+04
